This is an account of results in US12336981B2, “Compounds and compositions for the inhibition of NAMPT” (Valo Health, Inc., priority 2010, dated 2025).

The test system of experiment [1] is A2780 cells. The experiment is described as follows: In-vitro cell proliferation assay (SRB), A2780 cells. Format: cell-based. The conditions noted are these: Homo sapiens, A2780, 72 h, A2780 cells, 72 hours, read-out: A2780 IC50. In outline:
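Cells were plated overnight at 37° C., 5% CO2, then exposed to serially diluted compounds (0.1% DMSO final) for 72 hours. Viable cells were measured by sulforhodamine B staining after TCA fixation, read at 570 nm; media-only background was subtracted before % inhibition was calculated.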

The target in experiment [2] is T1, NAMPT (Homo sapiens, UniProt P43490).
T1 construct: His tag; host or cells: E. coli
T1 sequence (P43490 whole entry): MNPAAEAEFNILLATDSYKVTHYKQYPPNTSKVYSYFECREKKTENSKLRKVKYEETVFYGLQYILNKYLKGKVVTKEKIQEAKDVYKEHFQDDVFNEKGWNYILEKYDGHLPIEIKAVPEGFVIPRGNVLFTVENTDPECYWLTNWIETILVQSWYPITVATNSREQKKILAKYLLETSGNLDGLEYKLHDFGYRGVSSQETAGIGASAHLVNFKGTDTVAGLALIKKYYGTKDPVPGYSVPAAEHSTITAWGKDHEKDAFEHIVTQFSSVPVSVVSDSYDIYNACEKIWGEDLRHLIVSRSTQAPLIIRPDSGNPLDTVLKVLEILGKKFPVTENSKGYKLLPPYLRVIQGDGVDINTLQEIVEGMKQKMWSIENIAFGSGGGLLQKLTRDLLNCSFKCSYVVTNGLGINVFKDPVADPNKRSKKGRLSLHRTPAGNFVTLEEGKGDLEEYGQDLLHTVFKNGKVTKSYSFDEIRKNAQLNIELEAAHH
The experiment is described as follows: Biochemical inhibition assay: NAMPT enzymatic reaction, NMN quantified by mass spectrometry. The conditions noted are these: read-out: Biochem IC50. In outline: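 Inhibition of E. coli-expressed His-tagged human NAMPT, measured as NMN formation by mass spectrometry after a 30 min room-temperature reaction containing 1 μM NAM, 100 μM PRPP and 2.5 mM ATP.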

Where “and” joins values, the source holds several entries; their conditions need not be identical. Equal entries are not always repeated. Where two headings read alike, the source gives them in different places.

Regarding `CNC(=O)c1cccc(S(=O)(=O)c2ccc(CNC(=O)c3cc4ccncc4o3)cc2)c1`, the IC50 in experiment [1] (SRB) stood at 14.3 nM; in experiment [2] (NAMPT enzymatic assay), 8.1 nM.

For `COc1cccc(S(=O)(=O)c2ccc(CNC(=O)c3cnc4[nH]ncc4c3)cc2)c1`, the results for the 50% inhibitory concentration (IC50) in experiment [1] (SRB) and in experiment [2] (NAMPT enzymatic reaction) were 10 nM and 20.9 nM, respectively.

Consider `CN(C)CCc1cccc(S(=O)(=O)c2ccc(CNC(=O)c3cc4ccncc4s3)cc2)c1`, for which the IC50 in experiment [1] (SRB) is 1.6 nM; in experiment [2] (NAMPT enzymatic assay), 2.5 nM.

`O=C(NCc1ccc(S(=O)(=O)c2cnc3ccc(Cl)cn23)cc1)c1cc2ccncc2s1` [N-[(4-{6-chloroimidazo[1,2-a]pyridine-3-sulfonyl}phenyl)methyl]thieno[2,3-c]pyridine-2-carboxamide]: the concentration for half-maximal inhibition (IC50) is 0.4 nM in experiment [1] (SRB) and 1.2 nM in experiment [2] (NAMPT enzymatic assay).

With `Cc1cc(Cl)ccc1S(=O)(=O)c1ccc(CNC(=O)c2cnc3nccn3c2)cc1`, the IC50 in experiment [1] (SRB) came to 53.9 nM; in experiment [2] (NAMPT enzymatic reaction) it was 6.6 nM.

Take `Cc1ccc(C)c(S(=O)(=O)c2ccc(CNC(=O)c3cc4ccncc4s3)cc2)c1` [N-({4-[(2,5-dimethylbenzene)sulfonyl]phenyl}methyl)thieno[2,3-c]pyridine-2-carboxamide]: the IC50 was found to be 8.6 nM in experiment [1] (SRB assay) and 11 nM in experiment [2] (NAMPT enzymatic reaction).

Take `O=C(NCc1ccc(S(=O)(=O)c2cccc(C(F)(F)F)c2)cc1)c1cnc2nccn2c1`: the values for the half-maximal inhibitory concentration (IC50) in experiment [1] (SRB) and in experiment [2] (NAMPT enzymatic assay) were 3 nM and 2.7 nM, respectively.

Take `COc1cc(C)cc(S(=O)(=O)c2ccc(CNC(=O)c3cnc4nccn4c3)cc2)c1OC`: the results for the IC50 in experiment [1] (SRB) and in experiment [2] (NAMPT enzymatic reaction) were 15.6 nM and 4.2 nM, respectively.

For `O=C(NCc1ccc(S(=O)(=O)c2cccc(N3CCCC3)c2)cc1)c1cc2ccncc2o1`, the half-maximal inhibitory concentration (IC50) in experiment [1] (SRB) was 7.4 nM; in experiment [2] (NAMPT enzymatic assay), 8.2 nM.

For `COc1ccc(Cl)c(S(=O)(=O)c2ccc(CNC(=O)c3cnc4nccn4c3)cc2)c1`, the values for the half-maximal inhibitory concentration (IC50) in experiment [1] (SRB) and in experiment [2] (NAMPT enzymatic reaction) were 51.5 nM and 6.1 nM, respectively.

Turning to `CC(C)COc1cccc(S(=O)(=O)c2ccc(CNC(=O)c3cnc4[nH]ncc4c3)cc2)c1`, the IC50 in experiment [1] (SRB) came to 34.2 nM; in experiment [2] (NAMPT enzymatic assay) it was 28.5 nM.

On to `COc1cccc(S(=O)(=O)c2ccc(CNC(=O)c3cnc4[nH]ncc4c3)cc2)c1OC` [N-({4-[(2,3-dimethoxybenzene)sulfonyl]phenyl}methyl)-1H-pyrazolo[3,4-b]pyridine-5-carboxamide], for which the half-inhibitory concentration (IC50) in experiment [1] (SRB) stood at 83.3 nM; in experiment [2] (NAMPT enzymatic reaction) it was 123 nM.

Regarding `COc1ccc(Cl)cc1S(=O)(=O)c1ccc(CNC(=O)c2cc3cnccc3[nH]2)cc1` [N-({4-[(5-chloro-2-methoxybenzene)sulfonyl]phenyl}methyl)-1H-pyrrolo[3,2-c]pyridine-2-carboxamide], the results for the IC50 in experiment [1] (SRB assay) and in experiment [2] (NAMPT enzymatic reaction) were 2 nM and 6 nM, respectively.

Consider `COc1ccc(C(C)(C)C)cc1S(=O)(=O)c1ccc(CNC(=O)c2cc3cnccc3[nH]2)cc1` [N-({4-[(5-tert-butyl-2-methoxybenzene)sulfonyl]phenyl}methyl)-1H-pyrrolo[3,2-c]pyridine-2-carboxamide], for which the results for the IC50 in experiment [1] (SRB assay) and in experiment [2] (NAMPT enzymatic reaction) were 6 nM and 647 nM, respectively.

Turning to `Nc1ccc(C(=O)NCc2ccc(S(=O)(=O)c3cc(F)cc(F)c3)cc2)cn1` [6-amino-N-({4-[(3,5-difluorobenzene)sulfonyl]phenyl}methyl)pyridine-3-carboxamide], the figures for the IC50 in experiment [1] (SRB) and in experiment [2] (NAMPT enzymatic reaction) were 275 nM and 14.2 nM, respectively.

`O=C(NCc1ccc(S(=O)(=O)c2cccc(N3CCCCC3)c2)cc1)c1cnc2[nH]ncc2c1`: the IC50 in experiment [1] (SRB) came out at 14 nM; in experiment [2] (NAMPT enzymatic assay) it was 53.6 nM.

Turning to `CC(=O)c1ccc(S(=O)(=O)c2ccc(CNC(=O)c3cnc4nccn4c3)cc2)cc1`, the IC50 in experiment [1] (SRB) worked out at 6.5 nM; in experiment [2] (NAMPT enzymatic reaction) it was 5.2 nM.

As for `COc1cccc(S(=O)(=O)c2ccc(CNC(=O)c3cc4ccncc4s3)cc2)c1OC` [N-({4-[(2,3-dimethoxybenzene)sulfonyl]phenyl}methyl)thieno[2,3-c]pyridine-2-carboxamide], the values for the IC50 in experiment [1] (SRB) and in experiment [2] (NAMPT enzymatic assay) were 3.4 nM and 9 nM, respectively.

Regarding `O=C(NCc1ccc(S(=O)(=O)c2cccc(N3CCOCC3)c2)cc1)c1cc2ccncc2s1`, the 50% inhibitory concentration (IC50) in experiment [1] (SRB) was 1.9 nM; in experiment [2] (NAMPT enzymatic assay) it was 4 nM and 3.6 nM.

In the case of `O=C(NCc1ccc(S(=O)(=O)N2CCCCC2)cc1)c1ccn2nnnc2c1` [N-{[4-(piperidine-1-sulfonyl)phenyl]methyl}-[1,2,3,4]tetrazolo[1,5-a]pyridine-7-carboxamide], the values for the IC50 in experiment [1] (SRB assay) and in experiment [2] (NAMPT enzymatic reaction) were 9 nM and 3 nM, respectively.

Turning to `COc1ccc(S(=O)(=O)c2ccc(CNC(=O)c3ccc4nccn4c3)cc2)c(OC)c1` [N-({4-[(2,4-dimethoxybenzene)sulfonyl]phenyl}methyl)imidazo[1,2-a]pyridine-6-carboxamide], the figures for the IC50 in experiment [1] (SRB) and in experiment [2] (NAMPT enzymatic reaction) were 15.1 nM and 58.2 nM, respectively.

As for `O=C(NCc1ccc(S(=O)(=O)c2cccc3ccsc23)cc1)c1cc2ccncc2o1` [N-{[4-(1-benzothiophene-7-sulfonyl)phenyl]methyl}furo[2,3-c]pyridine-2-carboxamide], the IC50 in experiment [1] (SRB) came to 13.9 nM; in experiment [2] (NAMPT enzymatic assay), 4.9 nM.

As to `O=C(NCc1ccc(S(=O)(=O)Nc2ccc3cn[nH]c3c2)cc1)c1cc2cnccc2[nH]1` [N-({4-[(1H-indazol-6-yl)sulfamoyl]phenyl}methyl)-1H-pyrrolo[3,2-c]pyridine-2-carboxamide], the IC50 in experiment [1] (SRB assay) is 5440 nM; in experiment [2] (NAMPT enzymatic reaction) it was 135 nM.

For `O=C(NCc1ccc(S(=O)(=O)c2ccccc2CN2CCOCC2)cc1)c1cnc2[nH]ncc2c1`, the half-maximal inhibitory concentration (IC50) in experiment [1] (SRB) is 46.5 nM; in experiment [2] (NAMPT enzymatic assay) it was 69.4 nM.

In the case of `Cn1ncc2cc(S(=O)(=O)c3ccc(CNC(=O)c4cnc5nccn5c4)cc3)ccc21` [N-{[4-(1-methyl-1H-indazole-5-sulfonyl)phenyl]methyl}imidazo[1,2-a]pyrimidine-6-carboxamide], the IC50 in experiment [1] (SRB) amounted to 4.9 nM; in experiment [2] (NAMPT enzymatic assay), 1.7 nM.

On to `O=C(NCc1ccc(S(=O)(=O)c2cccc(N3CCCCC3)c2)cc1)c1cc2cnccc2[nH]1`, for which the IC50 in experiment [1] (SRB) worked out at 3.3 nM; in experiment [2] (NAMPT enzymatic assay), 14.4 nM.

On to `Cc1ccc(S(=O)(=O)c2ccc(CNC(=O)c3cc4ccncc4o3)cc2)c(Cl)c1`, for which the half-inhibitory concentration (IC50) in experiment [1] (SRB) amounted to 14.2 nM; in experiment [2] (NAMPT enzymatic reaction), 14.1 nM.

Take `Cc1ccc(S(=O)(=O)c2ccc(CNC(=O)c3cc4cnccc4[nH]3)cc2)c(Cl)c1`: the concentration for half-maximal inhibition (IC50) came to 2.7 nM in experiment [1] (SRB) and 8 nM in experiment [2] (NAMPT enzymatic reaction).

With `N#CC1(c2ccc(S(=O)(=O)c3ccc(CNC(=O)c4cc5cnccc5[nH]4)cc3)cc2)CCCC1`, the IC50 in experiment [1] (SRB) was determined as 18.9 nM; in experiment [2] (NAMPT enzymatic assay), 60.1 nM.

On to `O=C(NCc1ccc(S(=O)(=O)c2ccc3c(c2)OCCO3)cc1)c1cc2ccncc2o1` [N-{[4-(2,3-dihydro-1,4-benzodioxine-6-sulfonyl)phenyl]methyl}furo[2,3-c]pyridine-2-carboxamide], for which the half-inhibitory concentration (IC50) in experiment [1] (SRB) stood at 6.2 nM; in experiment [2] (NAMPT enzymatic assay) it was 5.5 nM.

With `O=C(NCc1ccc(NS(=O)(=O)c2ccccc2OC(F)(F)F)cc1)c1cc2cnccc2[nH]1` [N-[(4-{[2-(trifluoromethoxy)benzene]sulfonamido}phenyl)methyl]-1H-pyrrolo[3,2-c]pyridine-2-carboxamide], the IC50 in experiment [1] (SRB assay) is 1 nM; in experiment [2] (NAMPT enzymatic reaction), 3 nM.

As to `COc1ccccc1S(=O)(=O)c1ccc(CNC(=O)c2cc3ccncc3s2)cc1` [N-({4-[(2-methoxybenzene)sulfonyl]phenyl}methyl)thieno[2,3-c]pyridine-2-carboxamide], the figures for the half-maximal inhibitory concentration (IC50) in experiment [1] (SRB assay) and in experiment [2] (NAMPT enzymatic reaction) were 5.3 nM and 7 nM, respectively.

As to `O=C(NCc1ccc(S(=O)(=O)c2ccc(C(F)(F)F)cc2C(F)(F)F)cc1)c1ccc2nccn2c1`, the IC50 in experiment [1] (SRB) is 53.2 nM; in experiment [2] (NAMPT enzymatic assay) it was 220 nM.

For `O=C(NCc1ccc(S(=O)(=O)c2ccc(F)cc2Cl)cc1)c1cc2ccncc2o1`, the values for the concentration for half-maximal inhibition (IC50) in experiment [1] (SRB) and in experiment [2] (NAMPT enzymatic reaction) were 63.4 nM and 17.8 nM, respectively.

For the molecule `O=C(NCc1ccc(S(=O)(=O)c2cc(F)cc(F)c2)cc1)c1cnc2nccn2c1`, the IC50 in experiment [1] (SRB) stood at 3 nM; in experiment [2] (NAMPT enzymatic reaction), 2 nM.

As for `COc1ccc(S(=O)(=O)c2ccc(CNC(=O)c3cnc4[nH]ncc4c3)cc2)cc1F` [N-({4-[(3-fluoro-4-methoxybenzene)sulfonyl]phenyl}methyl)-1H-pyrazolo[3,4-b]pyridine-5-carboxamide], the concentration for half-maximal inhibition (IC50) stood at 6 nM in experiment [1] (SRB) and 43 nM in experiment [2] (NAMPT enzymatic reaction).

For `O=C(NCc1ccc(S(=O)(=O)c2ccco2)cc1)c1ccc2nccn2c1` [N-{[4-(furan-2-sulfonyl)phenyl]methyl}imidazo[1,2-a]pyridine-6-carboxamide], the values for the IC50 in experiment [1] (SRB) and in experiment [2] (NAMPT enzymatic assay) were 100 to 1000 nM and 76.2 nM, respectively.

Consider `CCCOc1ccc(S(=O)(=O)c2ccc(CNC(=O)c3cc4ccncc4s3)cc2)cc1`, for which the IC50 in experiment [1] (SRB) turned out to be 8.1 nM; in experiment [2] (NAMPT enzymatic reaction), 4.3 nM.

For the molecule `CCc1ccccc1S(=O)(=O)c1ccc(CNC(=O)c2ccc3nccn3c2)cc1` [N-({4-[(2-ethylbenzene)sulfonyl]phenyl}methyl)imidazo[1,2-a]pyridine-6-carboxamide], the concentration for half-maximal inhibition (IC50) came to 12.9 nM in experiment [1] (SRB) and 30.2 nM in experiment [2] (NAMPT enzymatic reaction).

With `CS(=O)(=O)c1ccc(S(=O)(=O)c2ccc(CNC(=O)c3ccc4nccn4c3)cc2)cc1` [N-({4-[(4-methanesulfonylbenzene)sulfonyl]phenyl}methyl)imidazo[1,2-a]pyridine-6-carboxamide], the results for the half-inhibitory concentration (IC50) in experiment [1] (SRB) and in experiment [2] (NAMPT enzymatic reaction) were 24.7 nM and 105 nM, respectively.

Consider `O=C(NCc1ccc(S(=O)(=O)c2ccc(-n3cccn3)nc2)cc1)c1ccc2nccn2c1` [N-({4-[6-(1H-pyrazol-1-yl)pyridine-3-sulfonyl]phenyl}methyl)imidazo[1,2-a]pyridine-6-carboxamide], for which the half-inhibitory concentration (IC50) stood at 1.9 nM in experiment [1] (SRB) and 4 nM in experiment [2] (NAMPT enzymatic assay).

`O=C(NCc1ccc(S(=O)(=O)c2ccc(N3CCCC3)cc2)cc1)c1ccc2cn[nH]c2n1`: the IC50 is 4.5 nM in experiment [1] (SRB) and 6 nM in experiment [2] (NAMPT enzymatic assay).
